Measurements as given in patent US11103605B2, “PET-imaging immunomodulators” (BRISTOL-MYERS SQUIBB COMPANY, priority 2016, dated 2021).

Biological target: T1, PD-L1 (Homo sapiens, UniProt Q9NZQ7)
T1 construct: Human lung tumor tissues were embedded in OCT and chilled in 2-methylbutane; from tissue; host or cells: human non-small cell lung cancer biopsy sections; L2987 (hPD-L1+) and HT-29 (hPD-L1-) human xenograft sections grown in mice
Test: In vitro autoradiography on human lung tumor and xenograft tissue sections
Format: binding
Conditions: 0.25 nM radiotracer, unlabelled peptide 0.1 nM, 1 nM, 10 nM
Procedure: Human lung tumor tissues were embedded in OCT and chilled in 2-methylbutane for 2-5 minutes until frozen. Samples were stored in −80° C. degree freezer until use. Human xenograft tissues were also included in the assay. […] Once resulting xenograft tumors reached appropriate size (approx. 200-300 mm^3), mice were anesthetized with 2% isoflurane and sacrificed via cervical dislocation. Fresh tumor tissues were excised, immersed into OCT and chilled in 2-methylbutane for 2-5 minutes until frozen. The tissues were then wrapped in foil/ZIPLOC® bag and stored at −80° C. until use. For all tissues (human lung tumor and xenografts) sections of 5 μm thickness (collected as 2 sections/slide) were cut using a cryostat, thaw-mounted on glass microscope slides, and allowed to air dry for approximately 30 minutes. Blocking studies with cold (unlabelled) peptide at 0.1 nM, 1 nM, and 10 nM respectively. The individual slides, 1 slide per concentration, were transferred to glass slide incubation chambers for incubation. […] Autoradiography signals from tissue-associated radioactivity were quantified from these ROIs. The apparent displacement of the [^18F]labelled macrocyclic PD-L1 peptide radiotracer when compared to the total binding sections was determined for 3 different concentrations (0.1 nM, 1 nM, and 10 nM) of unlabeled peptide in both human lung tumor sections as well as human xenograft sections. […]

T1 sequence (Q9NZQ7 19-290): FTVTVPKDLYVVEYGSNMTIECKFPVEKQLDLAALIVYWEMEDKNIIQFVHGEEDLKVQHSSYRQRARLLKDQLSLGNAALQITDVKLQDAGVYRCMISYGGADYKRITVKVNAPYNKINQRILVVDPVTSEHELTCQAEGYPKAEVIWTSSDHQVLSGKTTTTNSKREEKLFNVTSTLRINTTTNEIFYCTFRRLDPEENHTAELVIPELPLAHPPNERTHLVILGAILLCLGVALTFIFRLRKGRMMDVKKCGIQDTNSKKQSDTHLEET

CCCC[C@H]1C(=O)N(C)[C@@H](CCCC)C(=O)N[C@@H](CC(C)C)C(=O)N[C@H](C(=O)NCC(=O)N[C@@H](Cc2cn(CCOCCOCCOCCOc3cccnc3[18F])nn2)C(=O)O)CSCC(=O)N[C@@H](Cc2ccc(O)cc2)C(=O)N(C)[C@@H](C)C(=O)N[C@@H](CC(N)=O)C(=O)N2CCC[C@H]2C(=O)N[C@@H](CN)C(=O)N[C@@H](CC(C)C)C(=O)N2C[C@H](O)C[C@H]2C(=O)N[C@@H](Cc2c[nH]c3ccccc23)C(=O)N[C@@H](CCN)C(=O)N[C@@H](Cc2cn(CC(=O)O)c3ccccc23)C(=O)N1C [[^18F]labelled macrocyclic PD-L1 peptide]
displacement of radiotracer by unlabelled peptide: dose dependent displacement
